Results taken from patent US8197819B2, “Env polypeptide complexes and methods of use” (priority 2004, dated 2012).
“Also recorded” adds a separate entry of the source.

How the values were obtained:
Set-up in all cases: species or system HIV
gp120SF162 [1] = target: T1, gp120SF162 (Human immunodeficiency virus type 1 group M subtype B, UniProt P19550); experiment: SPR (Biacore) competition: gp120 binding to immobilized sCD4 with and without small molecule; conditions: FIG. 1, compared to when the small molecule was not present
Experimental: (§1) In a second step, each of the 100 structurally identified compounds was screened for its ability to compete with CD4 binding to Env (gp120) as well as its ability to induce the desired conformational change in the HIV Env protein to expose inducible epitopes. Both binding competition and exposure of cryptic epitopes were analyzed using Biacore's SRP systems. (Biacore Inc., Piscataway, N.J.), following the manufacturer's instructions.
Surface plasmon resonance assays were performed using a BIACORE 3000 optical biosensor system (Biacore AB, Uppsala, Sweden) with simultaneous monitoring of relevant flow cells. To perform the kinetic study of the binding of HIV env to sCD4, sCD4 was immobilized using amine coupling onto CM5 sensor chip to attain 4000 response units. To perform the kinetic study of the binding of HIV env to the monoclonal antibody 17b, antibodies were immobilized using amine coupling onto a CM5 sensor chip to attain 2000 response units. Using PBS buffer (pH 7.4) with 0.05% Tween 20 and 3% DMSO, association was assessed by passing gp120SF162 (GenBank P03378; Sanchez-Pescador et al. (1985) Science, 227(4686): 484-492), with and without various controls or small molecules, over the chip surface at a flow rate of 25 μl/min. […] Responses were measured by assessing the maximum RUs (response units) obtained at the peak of the binding curve.

gp120SF162 (17b epitope) = gp120SF162 (17b epitope) (Human immunodeficiency virus type 1 group M subtype B, UniProt P19550); experiment: SPR (Biacore) upregulation of monoclonal antibody 17b binding to Env/compound complex; conditions: for upregulation of CD4 inducible epitopes on gp120: FIGS. 4B, 5B, antibody not stated in the legend
Experimental: as §1
(§2) Surface plasmon resonance assays were performed using a BIACORE 3000 optical biosensor system (Biacore AB, Uppsala, Sweden) with simultaneous monitoring of relevant flow cells. To perform the kinetic study of the binding of HIV env to sCD4, sCD4 was immobilized using amine coupling onto CM5 sensor chip to attain 4000 response units. To perform the kinetic study of the binding of HIV env to the monoclonal antibody 17b, antibodies were immobilized using amine coupling onto a CM5 sensor chip to attain 2000 response units. Using PBS buffer (pH 7.4) with 0.05% Tween 20 and 3% DMSO, association was assessed by passing gp120SF162 (GenBank P03378; Sanchez-Pescador et al. (1985) Science, 227(4686): 484-492), with and without various controls or small molecules, over the chip surface at a flow rate of 25 μl/min. The concentration of gp120SMF162 used was 1 uM for all samples. As a negative control, a control surface coupled to 2000 response units of BSA (Pierce) was used. A buffer only control was subtracted from all sensograms. Responses were measured by assessing the maximum RUs (response units) obtained at the peak of the binding curve.
The percentage upregulation of 17b was determined by dividing the peak RU observed for the Env polypeptide/compound complex divided by the peak RU for the Env polypeptide alone.
(§3) Additional candidate small molecules were screened for CD4 binding inhibition and upregulation of CD4 inducible epitopes, e.g., mABs 17b and 48D, by HPLC and BlAcore methods as described in Examples 1 and 4 above. Each of the compounds in Table 5 below was screened three times by both methods using different lots of both gp120 and antibodies. The rounds of screening tests were additionally carried out on different dates.

gp120SF162 [2] = target: T1, gp120SF162; experiment: Example 6 screening for CD4 binding inhibition (SEC-HPLC with fluorescently-labelled CD4, and Biacore); conditions: three rounds
From the text: as §3
CD4 binding competition was examined in the free solution state by HPLC. Various candidate small molecules were each mixed with gp120SF162 and the resulting solution was incubated for 1 hour at 37° C. Fluorescently-labelled CD4, CD4 488, was then added to each incubated solution, and the resulting mixture was analyzed by size exclusion HPLC (SEC-HPLC), using fluorescent signal detection. The extent of competition with CD4 was determined as follows.

gp120 (48D epitope) = target: T2, gp120 (48D epitope) (Human immunodeficiency virus type 1 group M subtype B, UniProt P19550); experiment: SPR (Biacore) upregulation of monoclonal antibody 48D binding to Env/compound complex; conditions: Example 6 screening; FIG. 6C
T2 construct: The concentration of gp120SMF162 used was 1 uM for all samples
Experimental: as §2
Additional candidate small molecules were screened for CD4 binding inhibition and upregulation of CD4 inducible epitopes, e.g., mABs 17b and 48D, by HPLC and BlAcore methods as described in Examples 1 and 4 above. […]

CCOC(=O)C1CCN(C(=O)c2cc3c(C)cc(C)cc3[nH]2)CC1 [Compound 5, ethyl 1-[(4,6-dimethyl-1H-indol-2-yl)carbonyl]piperidine-4-carboxylate]
inhibition of CD4 binding to Env (Env binding to the CD4 chip) (gp120SF162 [1]): inhibition of CD4 binding to Env; also recorded: inhibited binding of Env to the CD4 chip
binding of Env/small molecule complex to monoclonal antibody 17b (gp120SF162 (17b epitope); SPR, FIG. 2, in comparison to Env-sCD4 complexes): exhibited enhanced binding to monoclonal antibody 17b

COc1ccccc1N1CCN(CC(=O)c2c(C)[nH]c3ccccc23)CC1 [Compound 26, 2-[4-(2-Methoxy-phenyl)-piperazin-1-yl]-1-(2-methyl-1H-indol-3-yl)-ethanone]
upregulation of CD4 inducible epitopes on gp120 (gp120SF162 (17b epitope); Example 6 screening): upregulation of CD4 inducible epititopes on gp120
inhibition of (competition with) CD4 binding to gp120 (gp120SF162 [2]): inhibition of CD4 binding to gp120

COc1cc(C(=O)N2CCC(c3c[nH]c4ccccc34)CC2)cc(OC)c1OC [Compound 12, [4-(1H-indol-3-yl)-piperidin-1-yl]-(3,4,5-trimethoxy-phenyl)-methanone]
upregulation of CD4 inducible epitopes on gp120 (gp120SF162 (17b epitope); Example 6 screening): absence of upregulation of CD4 inducible epititopes on gp120
inhibition of (competition with) CD4 binding to gp120 (gp120SF162 [2]): inhibition of CD4 binding to gp120

COc1ccc2[nH]cc(C(=O)CN3CCN(Cc4ccccc4)CC3)c2c1 [Compound 2, 2-(4-benzylpiperazin-1-yl)-1-(5-methoxy-1H-indol-3-yl)ethanone]
upregulation of CD4 inducible epitopes on gp120, binding to monoclonal antibody 48D (gp120 (48D epitope)): upregulation of CD4 inducible epitopes on gp120
upregulation of 17b (CD4 inducible epitope on gp120) (gp120SF162 (17b epitope); Example 6 screening, binding to monoclonal antibody 17b): upregulation of CD4 inducible epitopes on gp120
inhibition of (competition with) CD4 binding to gp120 (gp120SF162 [2]): non-inhibition of CD4 binding to gp120
